Test results taken from PubChem BioAssay (NCI).
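Results reflect a 48-hour exposure of cells in 96-well plates to compound at five concentrations. TGI denotes the concentration required for complete inhibition of growth.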

How the values were obtained:
Test in all cases: NCI-60 cell line screen, 48 h
786-0 renal = test system: 786-0 renal
A498 renal = test system: A498 renal
A549 NSCLC = test system: A549 NSCLC
ACHN renal = test system: ACHN renal
BT-549 breast = test system: BT-549 breast
CAKI-1 renal = test system: CAKI-1 renal
CCRF-CEM leukemia = test system: CCRF-CEM leukemia
COLO 205 colon = test system: COLO 205 colon
DU-145 prostate = test system: DU-145 prostate
EKVX NSCLC = test system: EKVX NSCLC
HCT-116 colon = test system: HCT-116 colon
HCT-15 colon = test system: HCT-15 colon
HL-60(TB) leukemia = test system: HL-60(TB) leukemia
HOP-62 NSCLC = test system: HOP-62 NSCLC
HOP-92 NSCLC = test system: HOP-92 NSCLC
HS 578T breast = test system: HS 578T breast
HT29 colon = test system: HT29 colon
IGROV1 ovarian = test system: IGROV1 ovarian
K-562 leukemia = test system: K-562 leukemia
KM12 colon = test system: KM12 colon
LOX IMVI melanoma = test system: LOX IMVI melanoma
M14 melanoma = test system: M14 melanoma
MALME-3M melanoma = test system: MALME-3M melanoma
MCF7 breast = test system: MCF7 breast
MDA-MB-231 breast = test system: MDA-MB-231 breast
MDA-MB-435 = test system: MDA-MB-435
MDA-N = test system: MDA-N
MOLT-4 leukemia = test system: MOLT-4 leukemia
NCI-H226 lung = test system: NCI-H226 lung
NCI-H23 lung = test system: NCI-H23 lung
NCI-H460 lung = test system: NCI-H460 lung
NCI-H522 lung = test system: NCI-H522 lung
NCI/ADR-RES ovarian = test system: NCI/ADR-RES ovarian
OVCAR-3 ovarian = test system: OVCAR-3 ovarian
OVCAR-4 ovarian = test system: OVCAR-4 ovarian
OVCAR-5 ovarian = test system: OVCAR-5 ovarian
OVCAR-8 ovarian = test system: OVCAR-8 ovarian
PC-3 prostate = test system: PC-3 prostate
RPMI-8226 leukemia = test system: RPMI-8226 leukemia
RXF 393 renal = test system: RXF 393 renal
SF-268 CNS = test system: SF-268 CNS
SF-295 CNS = test system: SF-295 CNS
SF-539 CNS = test system: SF-539 CNS
SK-MEL-2 melanoma = test system: SK-MEL-2 melanoma
SK-MEL-28 melanoma = test system: SK-MEL-28 melanoma
SK-MEL-5 melanoma = test system: SK-MEL-5 melanoma
SK-OV-3 ovarian = test system: SK-OV-3 ovarian
SN12C renal = test system: SN12C renal
SNB-19 CNS = test system: SNB-19 CNS
SNB-75 CNS = test system: SNB-75 CNS
SR leukemia = test system: SR leukemia
SW-620 colon = test system: SW-620 colon
T-47D breast = test system: T-47D breast
TK-10 renal = test system: TK-10 renal
U251 CNS = test system: U251 CNS
UACC-257 melanoma = test system: UACC-257 melanoma
UACC-62 melanoma = test system: UACC-62 melanoma
UO-31 renal = test system: UO-31 renal

Measured: TGI

O=C1C2C(c3ccccc3)NC(c3ccccc3)C1C(c1ccccc1)NC2c1ccccc1 (stereo not drawn)
> 100 µM: all assays above
